Counter-ions that a name gives are not always drawn.
Legend:
[1] = tested on: Klebsiella pneumoniae Weingarten 14; assay: In vivo lung infection: bacterial count in lung homogenate; details: relative to Tylose control = 100; treated 8-10 h before, 15 min before and 4-5 h after infection, preferably i.m. 20-40 mg/kg; lungs preferably 10 h after infection
Protocol: • a. Die Kultur der Bakterien erfolgt wie oben beschrieben, allerdings ohne radioaktive Markierung. • b. Weibliche Albino-Wistar Ratten oder weibliche SPF-Mäuse (Chbb:NMRI) werden i.p., i.v., i.m., p.o., vorzugsweise i.m. 8-10 Stunden vor, 15 Minuten vor und 4-5 Stunden nach der Infektion mit 2-200 mg, vorzugsweise 20-40 mg Benzylamin pro kg Körpergewicht bzw. Tylose (Kontrolle) behandelt. Die Bakteriensuspension (5 x 10⁸-10⁻⁹Bakterien/ml physiologischer Kochsalzlösung) wird in einer Vernebelungskammer mit 0,35 ml/ Minute über 10 Minuten vernebelt. Alternativ werden 10⁶ Keime in 0,05 ml physiologischer Kochsalzlösung i.n. in den Nasengang unter einer Inhalationsnarkose, z.B. mit Chloroform, appliziert. Jeweils ein Kollektiv von Tieren wird 1-10, vorzugsweise 10 Stunden nach der Infektion seziert, die Lungen steril entnommen und die Keime im Lungenhomogenat quantitativ durch Anzüchtung auf McConkey-Agar ermittelt. Die Bakterienkonzentration wird in Keimzahl/g Lunge bestimmt.

[2] = Acute oral toxicity (LD50); details: mouse, in vivo, Maus, p.o., read-out: LD₅₀
Source text: Die Verbindungen der obigen allgemeinen Formel I und deren physiologisch verträgliche Säureadditionssalze sind untoxisch und somit gut verträglich. So weist beispielsweise an der Maus • N-Methyl-N-(2-amino-3,5-dibrom-benzyl)-cyclohexylaminhydrochlorid eine LD₅₀ von >10 g/kg p.o., • N-(2-Amino-3,5-dibrom-benzyl)-trans-4-hydroxy-cyclohexylaminhydrochlorid eine von 2,72 g/kg p.o. und • die übrigen Verbindungen eine von >1 g/kg p.o. auf.

[3] = tested on: Klebsiella pneumoniae Weingarten 14 (Adhäsion an menschlichen Lungen-Epithelzellen ATCC, CCL5, L-132); assay: Direct effect in vitro: adhesion of 14C-labelled bacteria to an epithelial cell monolayer; type: cell-based; details: L132, 3 h, pH 5, read-out: weniger Keime auf den Epithelzellen im Vergleich zur Kontrolle
Source text: • a. Der Titer der lebenden Zellen, z.B. von menschlichen Lungen-Epithelzellen wie ATCC, CCL5, L-132, - zu denen nachgewiesenerweise die Verbindungen der obigen allgemeinen Formel I eine sehr hohe Affinität aufweisen, die mit der zum intakten Organ vergleichbar ist - wird mittels Vitalfärbung mit Trypan blue und Auszählung in einer Fuchs-Rosenthal-Zählkammer bestimmt und durch Verdünnung mit Kulturmedium, z.B. Minimum Essential Medium plus 10 % fötales Kälberserum plus 0,1 % Kanamycin, auf 7 x 10⁴ Zellen/ml eingestellt. Je 3 ml dieser Suspension werden in Glasszintillationsfläschchen gefüllt, die durch eine übliche Behandlung für die Anheftung der Epithelzellen auf die Glasoberfläche vorbereitet wurden. Die Inkubation bis zur Ausbildung eines geschlossenen Monolayers erfolgt über 3 Tage bei 37°C und 3 % CO₂. Ein Monolayer entspricht 5 x 10⁶ Zellen pro Szintillationsfläschchen. • b. Die Bakterien, z.B. Klebsiella pneumoniae Weingarten 14, werden in zwei Passagen von je 24 Stunden bei 37° C in Brain Heart Infusion Broth (BHJ) bis zur logarithmischen Wachstumsphase gezüchtet. Während der 2. Passage erfolgt die radioaktive Markierung durch die Zugabe von 1,2-¹⁴C-Azetat zum Nährmedium. Danach wird die Kultur zur Entfernung nichtinkorporierter Radioaktivität zweimal mit PBS (Phosphate buffered saline) gewaschen. […]

[4] = tested on: Klebsiella pneumoniae Weingarten 14 (Adhäsion an menschlichen Lungen-Epithelzellen ATCC, CCL5, L-132); assay: Indirect effect ex vivo: bacterial adhesion to epithelial cells after incubation with lung lavage fractions from treated rats; type: cell-based; details: rats 25 mg/kg p.o. over 5 days, vs Tylose control animals
Source text: • a. Der Titer der lebenden Zellen, z.B. von menschlichen Lungen-Epithelzellen wie ATCC, CCL5, L-132, - zu denen nachgewiesenerweise die Verbindungen der obigen allgemeinen Formel I eine sehr hohe Affinität aufweisen, die mit der zum intakten Organ vergleichbar ist - wird mittels Vitalfärbung mit Trypan blue und Auszählung in einer Fuchs-Rosenthal-Zählkammer bestimmt und durch Verdünnung mit Kulturmedium, z.B. Minimum Essential Medium plus 10 % fötales Kälberserum plus 0,1 % Kanamycin, auf 7 x 10⁴ Zellen/ml eingestellt. Je 3 ml dieser Suspension werden in Glasszintillationsfläschchen gefüllt, die durch eine übliche Behandlung für die Anheftung der Epithelzellen auf die Glasoberfläche vorbereitet wurden. Die Inkubation bis zur Ausbildung eines geschlossenen Monolayers erfolgt über 3 Tage bei 37°C und 3 % CO₂. Ein Monolayer entspricht 5 x 10⁶ Zellen pro Szintillationsfläschchen. • b. Die Bakterien, z.B. Klebsiella pneumoniae Weingarten 14, werden in zwei Passagen von je 24 Stunden bei 37° C in Brain Heart Infusion Broth (BHJ) bis zur logarithmischen Wachstumsphase gezüchtet. Während der 2. Passage erfolgt die radioaktive Markierung durch die Zugabe von 1,2-¹⁴C-Azetat zum Nährmedium. Danach wird die Kultur zur Entfernung nichtinkorporierter Radioaktivität zweimal mit PBS (Phosphate buffered saline) gewaschen. Mit PBS pH 5,5 wird die Kultur im Photometer auf eine Transmission von 35 % eingestellt, was durch Ermittlung der Lebendkeimzahl einem Titer von 5 x 10⁸ Bakterien/ml entspricht. • c. Die Bakterien-Kultur wird abzentrifugiert, PBS abgenommen und durch ein gleiches Volumen Benzylamin-Lösung in PBS pH 5,5 ersetzt. Für den Kontrollwert wird statt der Benzylamin-Lösung PBS pH 5,5 verwendet. Das Nährmedium der Zellen wird abgenommen, der Monolayer (= 5 x 10⁶ Zellen) wird zweimal mit PBS pH 5,5 gespült und mit 1 ml Bakterien-Benzylamin-Lösung (= 5 x 10⁸ Bakterien) überschichtet. Die Inkubation erfolgt 3 Stunden bei 37° C. Danach wird die Bakterien-Benzylamin-Lösung abgenommen und der Monolayer zur Entfernung nicht-adhärenter Bakterien zweimal mit PBS pH 5,5 gespült. Nach Zugabe von Instagel wird die Radioaktivität der gebundenen Bakterien im Szintillationszähler gemessen. • d. Ergebnis: Mit der Verbindung A (50 |g/ml) wurden im Vergleich zur Kontrolle 15 % weniger Keime auf den Epithelzellen nachgewiesen, mit der Verbindung B (50 |g/ml) 20 %.
• a. Die Kultur der Epithelzellen erfolgt wie oben beschrieben. • b. Die Kultur der Bakterien erfolgt wie oben beschrieben. • c. Männliche SPF-Ratten (Chbb:THOM) werden über 5 Tage p.o. mit 25 mg Benzylamin pro kg Körpergewicht bzw. mit Tylose (Kontrolle) behandelt. Durch Bronchoalveolar-Lavage mit isotoner Harnstofflösung wird das Lungenwaschwasser gewonnen und gepoolt. 100 ml davon werden mittels präparativer Isoelektrofokussierung in 30 proteinhaltige Gelfraktionen aufgetrennt. Nach Bestimmung des isoelektrischen Punktes der einzelnen Fraktionen mit einer Oberflächen-Elektrode werden die Proteine mit 3 ml PBS pH 5,5 pro Fraktion vom Gel eluiert. Die 30 Fraktionen werden auf pH 5,5 eingestellt. • d. Die Bakterienkultur wird abzentrifugiert, PBS abgenommen und durch ein gleiches Volumen Lungenwaschwasserfraktion ersetzt. Für den Kontrollwert wird statt der Lungenwaschwasserfraktionen PBS pH 5,5 und isotone Harnstofflösung verwendet. Nach einer Inkubation von 2 Stunden bei 37° C wird die Bakterienkultur erneut abzentrifugiert, Lungenwaschwasserfraktionen bzw. PBS bzw. Harnstoff abgenommen und durch ein gleiches Volumen PBS pH 5,5 ersetzt. Das Nährmedium der Zellen wird abgenommen, der Monolayer (= 5 x 10⁶ Zellen) wird zweimal mit PBS pH 5,5 gespült und mit 1 ml Bakteriensuspension (= 5 x 10⁸ Bakterien) überschichtet. Die Inkubation erfolgt 2 Stunden bei 37° C Danach wird die Bakteriensuspension abgenommen und der Monolayer zur Entfernung nicht-adhärenter Bakterien zweimal mit PBS pH 5,5 gespült. Nach Zugabe von Instagel wird die Radioaktivität der gebundenen Bakterien im Szintillationszähler gemessen. • e. […]

Compound: CN(Cc1cc(Br)cc(Br)c1N)C1CCCCC1 [Verbindung A, N-Methyl-N-(2-amino-3,5-dibrom-benzyl)-cyclohexylaminhydrochlorid]
- % Keimzahl/g Lunge [1]: 49%
- LD50 [2]: > 10000 mg/kg
- inhibition at 50 µg/mL [3]: 15%

Compound: Nc1c(Br)cc(Br)cc1CN[C@H]1CC[C@H](O)CC1 [Verbindung B, N-(2-Amino-3,5-dibrom-benzyl)-trans-4-hydroxy-cyclohexylamin-hydrochlorid]
- % Keimzahl/g Lunge [1]: 31%
- LD50 [2]: 2720 mg/kg
- % Hemmung der Adhäsivität ([4]; Isoelektrischer Punkt der Lungenwaschwasserfraktion 4,0): 73%
- % Hemmung der Adhäsivität ([4]; Isoelektrischer Punkt der Lungenwaschwasserfraktion 4,4): 65%
- % Hemmung der Adhäsivität ([4]; Isoelektrischer Punkt der Lungenwaschwasserfraktion 4,9): 65%
- % Hemmung der Adhäsivität ([4]; Isoelektrischer Punkt der Lungenwaschwasserfraktion 5,2): 61%
- % Hemmung der Adhäsivität ([4]; Isoelektrischer Punkt der Lungenwaschwasserfraktion 5,8): 39%
- % Hemmung der Adhäsivität ([4]; Isoelektrischer Punkt der Lungenwaschwasserfraktion 6,7): 67%
- % Hemmung der Adhäsivität ([4]; Isoelektrischer Punkt der Lungenwaschwasserfraktion 7,6): 79%
- % Hemmung der Adhäsivität ([4]; Isoelektrischer Punkt der Lungenwaschwasserfraktion 8,6): 72%
- inhibition at 50 µg/mL [3]: 20%
